From patent US20120027687A1, “FATTY ACID PROTEIN KINASE C ACTIVATORS AND ANTICOAGULANT FOR THE TREATMENT OF STROKE” (priority 2010, published 2012)

Legend:
[1] = tested on: Endothelin-converting enzyme (ECE); assay: Endothelin-converting enzyme (ECE) activity in neuroblastoma cells; type: cell-based, human; settings: bryostatin 0.27 nM, BR-101 1 μM, BR-111 1 μM
Procedure: ECE assay. […] neuroblastoma cells were incubated with bryostatin (0.27 nM), BR-101 (DCP-LA) (1 μM), and BR-111 (DHA-CP6) (1 μM). Endothelin-converting enzyme (ECE) was measured fluorimetrically using the method of Johnson and Ahn (Anal. Biochem. (2000), vol. 286, pp. 112-118). A sample of cell homogenate (20 μl) was incubated in 50 mM MES-KOH, pH 6.0, 0.01% C12E10 (polyoxyethylene-10-lauryl ether), and 15 μM McaBK2 (7-Methoxycoumarin-4-acetyl [Ala7-(2,4-Dinitrophenyl)Lys9]-bradykinin trifluoroacetate salt) (Sigma-Aldrich). After 60 min at 37° C., the reaction was quenched by adding trifluoroacetic acid to 0.5%. The sample was diluted to 1.4 ml with water and the fluorescence was measured at ex=334 nm, em=398 nm.

[2] = biological target: T1, PKCε (Homo sapiens, UniProt Q02156); assay: PKC assay with purified PKCε; type: biochemical
T1 construct: purchased Calbiochem
T1 sequence (Q02156 1-737): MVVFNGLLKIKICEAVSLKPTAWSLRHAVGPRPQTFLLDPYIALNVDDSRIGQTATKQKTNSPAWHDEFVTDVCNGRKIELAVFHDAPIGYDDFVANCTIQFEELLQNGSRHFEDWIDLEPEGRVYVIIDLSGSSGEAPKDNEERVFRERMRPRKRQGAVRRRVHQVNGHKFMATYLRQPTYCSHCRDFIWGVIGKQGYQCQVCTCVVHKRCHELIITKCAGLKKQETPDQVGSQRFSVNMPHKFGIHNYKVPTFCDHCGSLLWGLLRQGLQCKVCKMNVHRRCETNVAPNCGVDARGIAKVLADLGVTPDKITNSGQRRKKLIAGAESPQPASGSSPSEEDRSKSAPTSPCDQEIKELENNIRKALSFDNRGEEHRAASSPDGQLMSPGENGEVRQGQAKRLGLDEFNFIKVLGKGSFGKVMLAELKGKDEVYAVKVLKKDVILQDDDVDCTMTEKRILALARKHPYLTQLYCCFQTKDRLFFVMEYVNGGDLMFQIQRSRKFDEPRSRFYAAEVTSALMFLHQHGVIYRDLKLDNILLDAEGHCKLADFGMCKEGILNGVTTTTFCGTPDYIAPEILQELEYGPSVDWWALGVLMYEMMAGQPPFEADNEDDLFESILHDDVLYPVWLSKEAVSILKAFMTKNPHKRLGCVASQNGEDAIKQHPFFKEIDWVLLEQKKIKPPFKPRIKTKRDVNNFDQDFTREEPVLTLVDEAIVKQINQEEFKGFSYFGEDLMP
Procedure: PKC assay. […] 0.5 micro Ci[^γ32P]ATP was added. […] The reaction was stopped by spotting the reaction mixtures on 1×2 cm strips of cellulose phosphate paper (Whatman P81) and immediately washing twice for 1 hr in 0.5% H3PO4. The cellulose phosphate strips were counted in a scintillation counter. In some experiments, phosphatidylserine, diacylglycerol, and/or calcium were removed. […]
(§1) To determine their PKC isozyme specificity, fatty acid derivatives were preincubated with purified PKC for five minutes and the PKC activity was measured radiometrically.

[3] = tested on: other PKC isoforms; assay: PKC isozyme specificity, other isoforms; type: biochemical; settings: at 10 μM, data not shown
Procedure: Protein kinase C assay. Rat hippocampal cells were cultured and scraped in 0.2 ml homogenization buffer (20 mM Tris-HCl, pH 7.4, 50 mM NaF, 1 μg/ml leupeptin, and 0.1 mM PMSF) and homogenized by sonication a Marsonix microprobe sonicator (5 sec, 10W). To measure PKC, 10 μl of cell homogenate or purified PKC isozyme (purchased from Calbiochem) was incubated for 15 min at 37° C. in the presence of 10 μM histones, 4.89 mM CaCl2, 1.2 μg/μl phosphatidyl-L-serine, 0.18 μg/μl 1,2-dioctanoyl-sn-glycerol, 10 mM MgCl2, 20 mM HEPES (pH 7.4), 0.8 mM EDTA, 4 mM EGTA, 4% glycerol, 8 μg/ml aprotinin, 8 μg/ml leupeptin, and 2 mM benzamidine. 0.5 Ci [^γ32P]ATP was added and ^32P-phosphoprotein formation was measured by adsorption onto phosphocellulose as described previously. Nelson and Alkon, J. Neurochemistry (1995), vol. 65, pp. 2350-2357. For measurements of activation by BR-101 (DCP-LA) and similar compounds. PKC activity was measured in the absence of diacylglycerol and phosphatidylserine and PKC δ, ε, η, and μ were measured in the absence of added EGTA and CaCl2, as described by Kanno et al. (J. Lipid Res. 2006, vol. 47, pp. 1146-1150). […]
as §1

[4] = biological target: T2, PKCα (Homo sapiens, UniProt P17252); assay: PKC assay with PKCα; type: biochemical; settings: data not shown
T2 construct: purchased Calbiochem
Procedure: PKC assay. Recombinant PKC (1 ng of PKCα or PKCε isoform) was mixed with BR-101 (DCP-LA) in the presence of 10 micromolar histones, 5 mM CaCl2, 1.2 μg/μl phosphatidyl-L-serine, 0.18 μg/μl 1,2-dioctanoyl-sn-glycerol (DAG), 10 mM MgCl2, 20 mM HEPES (pH 7.4), 0.8 mM EDTA, 4 mM EGTA, 4% glycerol, 8 μg/ml aprotinin, 8 μg/ml leupeptin, and 2 mM benzamidine. 0.5 micro Ci[^γ32P]ATP was added. The incubation mixture was incubated for 15 min at 37 degrees in a total volume of 10 microliters. The reaction was stopped by spotting the reaction mixtures on 1×2 cm strips of cellulose phosphate paper (Whatman P81) and immediately washing twice for 1 hr in 0.5% H3PO4. The cellulose phosphate strips were counted in a scintillation counter. In some experiments, phosphatidylserine, diacylglycerol, and/or calcium were removed.
Protein kinase C assay. […] 0.5 Ci [^γ32P]ATP was added and ^32P-phosphoprotein formation was measured by adsorption onto phosphocellulose as described previously. […] PKC activity was measured in the absence of diacylglycerol and phosphatidylserine and PKC δ, ε, η, and μ were measured in the absence of added EGTA and CaCl2, as described by Kanno et al. (J. Lipid Res. 2006, vol. 47, pp. 1146-1150). […]
as §1

CCCCCC1CC1CC1CC1CCCCCCCC(=O)O (stereo not drawn) [BR-101, 2-[(2-pentylcyclopropyl)methyl]cyclopropaneoctanoic acid]
ECE activity [1]: sustained increase | activation of PKCε ([2]; 10 nM, lowest concentration tested): 2.75 fold | activation of PKCε ([2]; at 10 μM): effective activator | effects on the other PKC isoforms [3]: relatively small effects | effect on PKCα at higher concentrations ([4]; 50-100 μM): activated | effect on PKCα [4]: not affected
